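Five compound concentrations were applied to cells in 96-well plates for 48 hours; endpoints were derived by simple linear interpolation of the resulting dose-response curve. GI50 is the concentration that inhibits growth by half. TGI: total growth inhibition.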
Assays:
Assay in all cases: NCI anticancer screen, dose series, 48 h
[1] = test system: OVCAR-5 ovarian
[2] = test system: A549 NSCLC
[3] = test system: SF-268 CNS
[4] = test system: RPMI-8226 leukemia
[5] = test system: CAKI-1 renal
[6] = test system: MDA-MB-231 breast
[7] = test system: SF-539 CNS
[8] = test system: HCT-116 colon
[9] = test system: K-562 leukemia
[10] = test system: MCF7 breast

SMILES | TGI [1] [µM] | TGI [2] [µM] | TGI [3] [µM] | TGI [4] [µM] | TGI [5] [µM] | TGI [6] [µM] | TGI [7] [µM] | TGI [8] [µM] | TGI [9] [µM] | TGI [10] [µM] | GI50 [1] [µM] | GI50 [2] [µM] | GI50 [3] [µM] | GI50 [4] [µM] | GI50 [5] [µM] | GI50 [6] [µM] | GI50 [7] [µM] | GI50 [8] [µM] | GI50 [9] [µM] | GI50 [10] [µM]
Cn1c(N)c(N=Nc2ccc(S(N)(=O)=O)cc2)c(=O)n(C)c1=O | > 100 | > 100 | > 100 | > 100 | > 100 | > 100 | > 100 | > 100 | > 100 | > 100 |  |  |  |  |  |  |  |  |  | 
CCCCCCCCCCCCOC1C(C(COC2OC(C(O)CO)C3OC(C)(C)OC23)OC(=O)Nc2ccc([N+](=O)[O-])cc2)OC2OC(C)(C)OC21 (stereo not given) | 19.1 | 10.7 | 22.1 | 7.2 | 7.28 | 7.2 | 14.7 | 3.45 | 16.8 | 8.6 | 5.41 | 3.36 | 7.34 | 2.7 | 2.55 | 2.6 | 4.15 | 1.77 | 3.87 | 2.69
COC(=O)[C@@H](C)C[C@H](Cc1ccccc1)NC(=O)c1cccc([C@@H](C[C@H](C(C)C)N(C)C(=O)[C@@H](NC(=O)[C@H]2CCCCN2C)C(C)C)OC(C)=O)n1 | > 16.7 | > 16.7 | > 16.7 | > 16.7 | > 16.7 | 3.21 | 0.00795 | > 6.68 | > 16.7 | > 16.7 | 0.00772 | 0.00591 | 0.0164 | < 0.00167 | 0.00173 | 0.00236 | 0.00275 | < 0.00167 | < 0.00167 | < 0.00167
COc1ccc(C2CC(c3cccc(Nc4ccnc5cc(Cl)ccc45)c3)=NN2c2ccc(Cl)cc2)cc1 (stereo not given) | 87 | > 100 | > 100 | 31.9 | > 100 | 65.2 | 4.43 | 19.2 | > 100 | 44.3 | 15.6 | 4.7 | 15.5 | 4.7 | 2.38 | 4.84 | 1.8 | 2.27 | 2.75 | 3.45
CN1CCN(Cc2ccc(NC(=O)c3cncc(C#Cc4c(N)ncc5ccc(F)cc45)c3)cc2C(F)(F)F)CC1 | 1.27 | 6.21 | 2.43 | 3.87 | 5.68 | 1.15 | 2.65 | 1.37 | 1.07 | 1.53 | 0.524 | 0.96 | 0.783 | 0.757 | 1.06 | 0.24 | 0.628 | 0.211 | 0.005 | 0.297
Cn1cnc2nc(Cl)nc(Cl)c21 | 19.9 | > 100 | 38.2 | 26.4 | 3.26 | 33.2 | 5.53 | 13.3 | 94.7 | 13.2 | 3.56 | 3.68 | 3.22 | 0.591 | 1.08 | 4.26 | 0.924 | 0.323 | 0.713 | 0.335
C/C(=C1/N=C(c2ccccc2)OC1=O)c1cccs1 | > 100 | > 100 | > 100 | > 100 | > 100 | > 100 | > 100 | > 100 | > 100 | > 100 |  |  |  |  |  |  |  |  |  | 
CCN(CC)CCC(CNc1c2ccc(Cl)cc2nc2ccc(OC)cc12)c1ccccc1 (stereo not given) | 5.64 | 3.49 | 3.8 | 3.85 | 3.62 | 2.73 | 3.16 | 3.52 | 1.28 | 1.88 | 1.94 | 1.51 | 1.33 | 1.33 | 1.3 | 1.01 | 1.49 | 0.729 | 0.337 | 0.505
Cn1c([N+](=O)[O-])cnc1/C=C1\Oc2ccc(Cl)cc2C1=O | 6.53 | 5.88 | 1.45 | 5.58 | 0.754 | 4.64 | 3.69 | 0.793 | > 26.9 | 4.42 | 2.16 | 1.95 | 0.339 | 0.985 | 0.257 | 0.783 | 1.62 | 0.247 | 0.765 | 0.485
CN(C)c1ccc(/C=C/C(=O)c2ccc(Nc3nc(Nc4ccc(F)cc4)nc(Nc4ccc(Cl)cc4)n3)cc2)cc1 | > 100 | 35.1 | 63.6 | 26.5 | > 100 | 73 | 27.2 | 15.5 | > 100 | 21.5 | 20.3 | 5.03 | 6.75 | 3.53 | 14.6 | 9.56 | 9.58 | 3.3 | 2.77 | 2.61
COc1ccc(-c2nccn2-c2cc(OC)c(OC)c(OC)c2)cc1 | > 79.4 | > 100 | > 100 | > 93.2 | > 77.1 | 90.3 | 24.4 | > 100 | > 100 | > 100 | 10.8 | 4.94 | 16.6 | 8.06 | 1.22 | 7.62 | 5.78 | 1.9 | 1.5 | 1.27
O=C(/C=C\c1ccc(Cl)c(Cl)c1)c1ccccc1 | 31.3 | 26.2 | 24.7 | 4.86 | 19.3 | 25.2 | 29.6 | 3.89 | 8.1 | 5.58 | 15.3 | 11.5 | 11.1 | 2.11 | 6.33 | 12.3 | 15.3 | 1.91 | 2.82 | 1.89
CCOC(=O)C(Cc1ccc(N(CCCl)CCCl)cc1)NC(=O)C(CC(C)C)NC(C)=O (stereo not given) | 12 | 25.6 | 5.51 | 6.7 | 2.32 | 4.94 | 7.01 | 3.56 | 7.96 | 15.4 | 3.18 | 1.73 | 1.09 | 1.96 | 0.32 | 2 | 1.09 | 1.06 | 1.19 | 0.699

Source: PubChem BioAssay (NCI)
